The source of these data is patent US5962451A, “Benzodiazepin derivatives useful as CCK-receptor antagonists” (Ferring BV, priority 1992, dated 1999).

One assay deals with T1, CCK-B receptor (Rattus norvegicus, UniProt P30553).
T1 construct: the whole brain was immediately excised from each of the rats and homogenized; from tissue; host or cells: SD rat whole brain, membrane preparation
Put plainly: Measurement of Binding Affinity for CCK-B Receptors ([125I]BH-CCK-8 displacement, rat brain membranes). The note with it: SD rat brain membranes, [125I]BH-CCK-8, 25° C., 120 min, pH 6.5. How it is done: Measurement of Binding Affinity for CCK-B Receptors
About 100 SD rats were decapitated without anaesthesia, the whole brain was immediately excised from each of the rats and homogenized in 10-fold volume of 0.32 M aqueous solution of sucrose by the use of a Teflon-coatedhomogenizer, the homogenate thus obtained was centrifuged for ten minutes at 900 g by the use of a cooled centrifuge, and the supernatant was further centrifuged for 15 minutes at 11500 g. The precipitate thus obtained was dispersed in 50 mM Tris-HCl buffer (pH 7.4) containing 0.08% Triton X-100, this suspension was allowed to stand for 30 minutes and again centrifuged for 15 minutes at 11500 g, the precipitate thus obtained was washed twice with 5 mM Tris-HCl buffer and twice with 50 mM Tris-HCl buffer in that order with centrifugal separation, the washed precipitate was suspended in 50 mM Tris-HCl buffer, and the suspension thus obtained was stored at -80° C. until the membrane preparation was required.
The membrane preparations were warmed to room temperature, diluted with 10 mM HEPES buffer (containing 130 mM NaCl, 5 mM MgCl2, 1 mM EGTA and 0.25 mg/ml bacitracin; pH 6.5) and incubated at 25° C. for 120 minutes in the presence of [^125 I]BH-CCK-8 and the test compound, then separated by suction filtration. Non-specific binding was determined in the presence of 1 μM CCK-8. The amount of labelled ligand bound to the receptor was measured by the use of a γ-counter; IC50 values were determined, being that concentration of test compound required to inhibit specific binding by 50%.
A high affinity for the CCK-A receptor in a gastrin/CCK-B antagonist is thought to be undesirable as it may lead to side-effects such as cholestasis and gall stone formation during therapy. Therefore it is preferable for the therapeutic agent to be selective for the CCK-B receptor. This selectivity is expressed by the ratio IC50. (CCK-A)/IC50 (CCK-B); the higher the value of this ratio the better is the selectivity.
The table below summarises CCK-B and CCK-A binding data for examples of preferred compounds, as well as the A/B ratio. Many compounds display a marked increase in CCK-B receptor binding affinity when compared to the compound of Example 281 of U.S. Pat. No. 4,820,834 (also known as L-365,260). Several compounds also show much greater selectivity for the CCK-B receptor over the CCK-A receptor than that reported for the compound of Example 281 of U.S. Pat. No.

Assay [1] concerns Pentagastrin-stimulated gastric acid secretion. The assay is described as follows: Measurement of Inhibition of Pentagastrin-stimulated Gastric Acid Secretion in dog (Heidenhain pouch). It counts as in vivo, male beagle dog. As to conditions: beagle dog, oral, pentagastrin 8 μg/kg/hr, mean for 3-5 animals. The protocol:
Measurement of Inhibition of Pentagastrin-stimulated Gastric Acid Secretion in doc
Assays were performed using male beagle dogs (7-12 kg) two months after surgical preparation of Heidenhain pouches following the conventional procedure. Each dog was used only once per week.
The animals were deprived of food with free access to water for 18 hr prior to the experiment. The gastric juice was collected from the gastric cannula by gravity drainage every 15 min, and acid output was determined by automatic titration with 0.05 N NaOH to pH 7.0 (Comtite-7, Hiranuma, Tokyo, Japan). Drugs were administered orally 3 hr after the start of the pentagastrin (8 μg/kg/hr) infusion. The effect of each drug was calculated as the percentage inhibition of stimulated acid output. […] Each result is a mean for 3-5 animals.

The target of a further assay is T2, CCK-A receptor (Rattus norvegicus, UniProt P30551).
T2 construct: The pancreas of an SD rat was homogenized; from tissue; host or cells: SD rat pancreas, membrane preparation
T2 sequence (P30551 1-444): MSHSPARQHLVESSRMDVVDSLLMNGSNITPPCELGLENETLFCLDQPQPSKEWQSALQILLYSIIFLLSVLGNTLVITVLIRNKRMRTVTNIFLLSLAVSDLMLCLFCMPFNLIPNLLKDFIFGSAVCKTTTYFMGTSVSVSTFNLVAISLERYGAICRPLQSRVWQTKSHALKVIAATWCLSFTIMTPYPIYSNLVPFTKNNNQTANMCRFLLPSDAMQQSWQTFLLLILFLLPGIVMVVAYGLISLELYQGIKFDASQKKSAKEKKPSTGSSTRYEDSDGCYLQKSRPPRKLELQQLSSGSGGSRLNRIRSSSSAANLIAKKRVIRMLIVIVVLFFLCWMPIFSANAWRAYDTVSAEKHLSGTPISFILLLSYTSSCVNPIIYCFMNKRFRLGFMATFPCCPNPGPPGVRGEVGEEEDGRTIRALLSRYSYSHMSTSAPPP
The assay is described as follows: Measurement of Binding Affinity for CCK-A Receptors ([3H]L-364,718 displacement, rat pancreas membranes). As to conditions: SD rat pancreas membranes, [3H]L-364,718, 37° C., 30 min. The protocol:
Measurement of Binding Affinity for CCK-A Receptors
The pancreas of an SD rat was homogenized in a 20-fold volume of 50 mM Tris-HCl buffer (pH 7.7) by the use of a Polytrone-type homogenizer, the homogenate was twice centrifuged for 10 minutes at 50000 g by the use of an ultra-centrifuge, the precipitate thus obtained was suspended in a 40-fold volume of 50 mM Tris-HCl buffer (containing 0.2% BSA, 5 mM MgCl2, 0.1 mg/ml bacitracin and 5 mM DTT; pH 7.7), and the suspension was stored at -80° C. until the membrane preparations were required.
The membrane preparations were then warmed to room temperature, diluted 1:10 with the buffer and incubated at 37° C. for 30 minutes in the presence of [^3 H]L-364,718 and the test compound then separated by suction filtration. Non-specific binding was determined in the presence of 1 μM L-364,718. The amount of labelled ligand bound to the receptor was measured by the use of a liquid scintillation counter; IC50 values were determined, being that concentration of test compound required to inhibit specific binding by 50%.
A high affinity for the CCK-A receptor in a gastrin/CCK-B antagonist is thought to be undesirable as it may lead to side-effects such as cholestasis and gall stone formation during therapy. Therefore it is preferable for the therapeutic agent to be selective for the CCK-B receptor. This selectivity is expressed by the ratio IC50. […]

T1 sequence (P30553 whole entry): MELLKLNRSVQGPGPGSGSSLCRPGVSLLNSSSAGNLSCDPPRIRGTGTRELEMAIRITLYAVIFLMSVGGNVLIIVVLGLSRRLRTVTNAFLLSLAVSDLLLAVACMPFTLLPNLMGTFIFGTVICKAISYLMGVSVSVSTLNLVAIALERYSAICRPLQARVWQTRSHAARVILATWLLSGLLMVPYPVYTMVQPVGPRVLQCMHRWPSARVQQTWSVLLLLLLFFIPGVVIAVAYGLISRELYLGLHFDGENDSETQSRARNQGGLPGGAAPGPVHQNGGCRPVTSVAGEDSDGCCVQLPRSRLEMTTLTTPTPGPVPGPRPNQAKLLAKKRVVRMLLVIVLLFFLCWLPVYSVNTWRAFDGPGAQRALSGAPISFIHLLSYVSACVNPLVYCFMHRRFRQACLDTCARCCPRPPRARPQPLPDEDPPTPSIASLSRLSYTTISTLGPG

Turning to `Cc1cccc(NC(=O)NC2N=C(c3ccccc3)c3ccccc3N(CC(=O)CC3CCCCC3)C2=O)c1` (racemic) [Example 32, N-((3RS)-1-Cyclohexylmethylcarbonylmethyl-2,3-dihydro-2-oxo-5-phenyl-1H-1,4-benzodiazepin-3-yl)-N'-(3-methylphenyl) urea], the IC50 (usually the point on the concentration scale where inhibition reaches its midpoint) at CCK-B receptor stood at 0.28 nM.
`CN(C)c1cccc(NC(=O)N[C@@H]2N=C(c3ccccc3)c3ccccc3N(CC(=O)C(C)(C)C)C2=O)c1` [Example 64, N-((3R)-1-tert-Butylcarbonylmethyl-2,3-dihydro-2-oxo-5-phenyl-1H-1,4-benzodiazepin-3-yl)-N'-(3-dimethylaminophenyl) urea]: the “maximum inhibition of stimulated acid output” value (“maximum inhibition” for short) in assay [1] (3 μmol/kg) was found to be 100%.
On the same count and under the same terms, next, `Cc1cccc(NC(=O)N[C@@H]2N=C(c3ccccc3)c3ccccc3N(CC(=O)C(C)(C)C)C2=O)c1` [Example 26, N-((3R)-1-tert-Butylcarbonylmethyl-2,3-dihydro-2-oxo-5-phenyl-1H-1,4-benzodiazepin-3-yl)-N'-(3-methylphenyl) urea]: 53%.
The compound `Cc1cccc(NC(=O)NC2N=C(c3ccccc3)c3ccccc3N(CC(=O)C3CCCC3)C2=O)c1` (racemic) [Example 4, N-((3RS)-1-Cyclopentylcarbonylmethyl-2,3-dihydro-2-oxo-5-phenyl-1H-1,4-benzodiazepin-3-yl)-N'-(3-methylphenyl) urea] had an IC50 on CCK-B receptor of 0.23 nM.
On to `Cc1cccc(NC(=O)NC2N=C(c3ccccc3)c3ccccc3N(CC(=O)C3(C)CCCCC3)C2=O)c1` (racemic) [Example 34, N-((3RS)-1-((1-Methylcyclohexyl)carbonylmethyl)-2,3-dihydro-2-oxo-5-phenyl-1H-1,4-benzodiazepin-3-yl)-N'-(3-methylphenyl) urea], for which, at CCK-B receptor, the IC50 stood at 0.38 nM.
On to `Cc1cccc(NC(=O)N[C@@H]2N=C(c3ccccc3)c3ccccc3N(C)C2=O)c1` [reference compound], for which the “maximum inhibition” value in assay [1] (100 μmol/kg) is given as 0%.
Turning to `Cc1cccc(NC(=O)NC2N=C(c3ccccn3)c3ccccc3N(CC(=O)C(C)(C)C)C2=O)c1` (racemic) [Example 27, N-((3RS)-1-tert-Butylcarbonylmethyl-2,3-dihydro-2-oxo-5-(2-pyridyl)-1H-1,4-benzodiazepin-3-yl)-N'-(3-methylphenyl) urea], in assay [1] (3 μmol/kg), the “maximum inhibition” value is 66%.
Take `Cc1cccc(NC(=O)NC2N=C(c3ccccn3)c3ccccc3N(CC(=O)C3CCCC3)C2=O)c1` (racemic) [Example 14, N-((3RS)-1-Cyclopentylcarbonylmethyl-2,3-dihydro-2-oxo-5-(2-pyridyl)-1H-1,4-benzodiazepin-3-yl)-N'-(3-methylphenyl)urea]: the IC50 came out at 0.12 nM at CCK-B receptor and 2600 nM at CCK-A receptor.
Turning to `CN(C)c1cccc(NC(=O)NC2N=C(c3ccccn3)c3ccccc3N(CC(=O)C(C)(C)C)C2=O)c1` (racemic) [Example 38, N-((3RS)-1-tert-Butylcarbonylmethyl-2,3-dihydro-2-oxo-5-(2-pyridyl)-1H-1,4-benzodiazepin-3-yl)-N'-(3-dimethylaminophenyl) urea], the “maximum inhibition” value in assay [1] (3 μmol/kg) is 100%.
